How the values were obtained:
Type in all cases: cell-based
[1] = test system: β1-receptor; experiment: inhibition of the positive chronotropic actions of isoproterenol in isolated guinea pig atrial preparations (β1); conditions: β1 (atria) versus β2 (trachea), from pA2 values
Description: (§1) The in vitro β-adrenergic blocking properties of the novel compounds of this invention were evaluated in accordance with standard procedures. The interaction with the β1 -receptor was determined via inhibition of the positive chronotropic actions of isoproterenol in isolated guinea pig atrial preparations. β2 potency was determined by using isolated guinea pig tracheal chains contracted with PGF2@ and by measuring inhibition of isoproterenol-induced relaxation.

[2] = molecular target: T1, β1-receptor (Cavia porcellus, UniProt H0W3H1); experiment: as above; conditions: isolated guinea pig atria, isoproterenol chronotropic action; read-out: pA2 values β1 (atria) (converted)
T1 construct: isolated guinea pig atrial preparations; from tissue; host or cells: isolated guinea pig atria
Description: as §1

[3] = molecular target: T2, β2 (trachea) (Cavia porcellus, UniProt Q8K4Z4); experiment: inhibition of isoproterenol-induced relaxation in isolated guinea pig tracheal chains contracted with PGF2α (β2); conditions: read-out: pA2 values β2 (trachea) (converted)
T2 construct: isolated guinea pig tracheal chains; from tissue; host or cells: isolated guinea pig tracheal chains
Description: as §1

T2 sequence (Q8K4Z4 whole entry): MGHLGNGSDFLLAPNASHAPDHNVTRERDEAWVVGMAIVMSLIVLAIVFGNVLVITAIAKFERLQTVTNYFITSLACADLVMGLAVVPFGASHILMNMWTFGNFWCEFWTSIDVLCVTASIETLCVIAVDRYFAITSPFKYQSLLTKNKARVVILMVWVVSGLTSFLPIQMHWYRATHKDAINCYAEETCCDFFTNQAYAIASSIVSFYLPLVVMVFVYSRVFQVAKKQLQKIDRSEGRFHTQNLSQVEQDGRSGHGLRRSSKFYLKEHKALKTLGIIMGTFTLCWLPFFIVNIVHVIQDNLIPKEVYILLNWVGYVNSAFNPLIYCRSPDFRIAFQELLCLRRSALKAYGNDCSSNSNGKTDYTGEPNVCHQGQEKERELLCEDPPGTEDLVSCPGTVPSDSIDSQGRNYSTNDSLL
T1 sequence (H0W3H1 1-470): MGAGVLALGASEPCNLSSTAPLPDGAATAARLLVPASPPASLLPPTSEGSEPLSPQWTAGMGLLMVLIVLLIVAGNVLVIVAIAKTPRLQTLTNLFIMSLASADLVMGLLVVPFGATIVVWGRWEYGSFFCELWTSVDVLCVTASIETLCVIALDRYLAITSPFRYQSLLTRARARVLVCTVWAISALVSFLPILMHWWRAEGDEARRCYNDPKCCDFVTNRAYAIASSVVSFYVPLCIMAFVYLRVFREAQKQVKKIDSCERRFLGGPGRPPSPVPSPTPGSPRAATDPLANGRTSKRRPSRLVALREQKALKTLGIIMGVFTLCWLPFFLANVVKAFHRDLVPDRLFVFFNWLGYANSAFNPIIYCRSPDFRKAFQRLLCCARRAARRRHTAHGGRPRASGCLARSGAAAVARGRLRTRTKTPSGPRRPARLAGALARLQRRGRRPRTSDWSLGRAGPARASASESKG

Kb [2] | Kb [3] | Compound | Cardioselectivity ratio [1]
74.1 nM | 302 nM | N#Cc1ccccc1OCC(O)CNCCc1ccncc1 (centres unmarked) | 4.1
23.4 nM | 138 nM | N#Cc1ccccc1OCC(O)CNCCc1cccnc1 (centres unmarked) | 5.9

The next lines start with the compound.

Compound | Kb [2] | Kb [3] | Cardioselectivity ratio [1]
N#Cc1ccccc1OCC(O)CNCCN1CCNCC1 (centres unmarked) | 25.7 nM | 64.6 nM | 2.5
N#Cc1ccccc1OCC(O)CNCCN1CCOCC1 (centres unmarked) | 15.5 nM | 89.1 nM | 5.8
CN(C)CCNCC(O)COc1ccccc1C#N (centres unmarked) [N(CH3)2, 1-(2-cyanophenoxy)-3-[2-(dimethylamino)ethyl]-amino-2-propanol] | 43.7 nM | 1120 nM | –
N#Cc1ccccc1OCC(O)CNCCc1ccccn1 (centres unmarked) | 34.7 nM | 34700 nM | 1000

— US4788193A, “1-aryloxy-3-(substituted alkylamino)-2-propanols, pharmaceutical compositions and use” (Merck & Co., Inc., priority 1987, dated 1988)
